From patent US20100292262A1, “4 (PYRROLO[2,3-C]PYRIDINE-3-YL)PYRIMIDIN-2-AMINE DERIVATIVES” (Merck Patent Gesellschaft Mit Beschrankter Haftung, priority 2008, published 2010)

What was measured:
A2780 (ovary) cells = assay: Inhibition of the proliferation/vitality of tumour cells (Alamar Blue test); type: cell-based; details: Homo sapiens, 96 h, 4 days cultivation with test substance in serum-containing medium, Alamar Blue readout
Method: In the present experiment description, the inhibition of tumour cell proliferation/tumour cell vitality by active ingredients is described. The cells are sown in a suitable cell density in microtitre plates (96-well format) and the test substances are added in the form of a concentration series. After four further days of cultivation in serum-containing medium, the tumour cell proliferation/tumour cell vitality can be determined by means of an Alamar Blue test system.
The cells are cultivated in medium. At intervals of several days, the cells are detached from the culture dishes with the aid of trypsin solution and sown in suitable dilution in fresh medium. The cells are cultivated at 37° Celsius and 10% CO2. […]
In each case, 20 μl of Alamar Blue reagent are added per well, and the microtitre plates are incubated, for example, for a further seven hours in a CO2 incubator (at 37° C. and 10% CO2). The plates are measured in a reader with a fluorescence filter at a wavelength of 540 nm. […]
The absorbance value of the medium control (no cells and test substances used) is subtracted from all other absorbance values. The controls (cells without test substance) are set equal to 100 percent, and all other absorbance values are set in relation thereto (for example in % of control):
IC50 values (50% inhibition) are determined with the aid of statistics programs, such as, for example, RS1.

Row | melting point | IC50 (A2780 (ovary) cells) [µM] | SMILES
1 | 184 to 187 °C (dec.) |  | CCCCc1cc(-c2c[nH]c3cnccc23)nc(N)n1 [Compound A1, 4-butyl-6-(1H-pyrrolo[2,3-c]pyridin-3-yl)pyrimidin-2-ylamine]
2 |  | 0.01 to 1 | c1ccc(Nc2nccc(-c3c[nH]c4cnccc34)n2)cc1 [Compound A3, phenyl-[4-(1H-pyrrolo[2,3-c]pyridin-3-yl)pyrimidin-2-yl]-amine]
3 |  | 0.01 to 1 | Nc1nccc(-c2c[nH]c3cnccc23)n1 [Compound A4, 4-(1H-pyrrolo[2,3-c]pyridin-3-yl)pyrimidin-2-ylamine]
